From patent US6248305A, “Boron heterocycle steroid mimics and associated pharmaceutical compositions and methods of use” (SRI International, priority 2000, dated 2001)

Columns and labels:
MCF-7 cells = assay: Antiproliferative assay, MCF-7 cells, alamar Blue; type: cell-based
Method: MCF-7 cells were obtained from the American Type Culture Collection (ATCC, Rockville, Md.). Exponentially growing cells were plated (96-well plates) in MEM (minimal essential medium) containing NaHCO3, CCD (charcoal-coated dextran)-stripped 10% FCS (fetal calf serum), and glycine. Cultures were incubated at 37° C. for 1 day, then treated with target by replacing the medium with 100 μL MEM containing supplements and target (3 wells at each of 5 concentrations). The relative effect of each concentration was compared to that of β-estradiol (positive control) by the alamar Blue™ assay (Biosource International),in which the dye is reduced by cellular mitochondrial enzymes to a soluble fluorophore with an intensity directly proportional to cell number. After cultures were incubated with target, alamar Blue™ diluted to 20% in MEM was added (100 μL/well) and cells were incubated for about 4 h, until a color change indicated sufficient amounts of reduced dye for quantitation. Relative cell number was evaluated directly from the plates by fluorimetry (560 nm excitation, 590 nm detection) on a Millipore 2300 CytoFluor. The concentration at which 50% effectiveness is seen (EC50) was calculated from statistically significant, reproducible effects. Statistical analysis was performed using JMP software (SAS Institute).

estrogen receptor = settings: cited from earlier work
[1] = concentration 10^-5 (unit not given)
[2] = concentration 10^-6 (unit not given)
[3] = concentration 10^-7 (unit not given)
[4] = concentration 10^-8 (unit not given)
[5] = concentration 10^-9 (unit not given)

Compound	% Inhibition (MCF-7 cells; [1])	% Inhibition (MCF-7 cells; [2])	% Inhibition (MCF-7 cells; [3])	% Inhibition (MCF-7 cells; [4])	% Inhibition (MCF-7 cells; [5])	affinity for the estrogen receptor (estrogen receptor)
O=C1OB2c3ccc(O)cc3C=NN2c2ccccc21 [Compound 4, 1,2-dihydro-1,6-dihydroxy-2-(2-carboxyphenyl)-2,3,1-benzodiazaborine lactone]	13%	4%	2%	6%	0%	–
OB1c2ccc(O)cc2C=NN1c1ccccn1 [Compound 11, 1,2-dihydro-1,6-dihydroxy-2-(6-pyridinyl)-2,3,1-benzodiazaborine]	55%	10%	8%	8%	5%	–
COc1cccc(N2N=Cc3cc(O)ccc3B2O)n1 [Compound 15, 1,2-dihydro-1,6-dihydroxy-2-(2-methoxy-6-pyridinyl)-2,3,1-benzodiazaborine]	62%	3%	0%	0%	0%	–
CC/C(=C(\c1ccccc1)c1ccc(OCCN(C)C)cc1)c1ccccc1 [tamoxifen, reference compound]	95%	54%	29%	5%	0%	–
Estrone and Estradiol-17β, 3-carboranylmethyl Ethers	–	–	–	–	–	0.5
